Data on 15 compounds can be found in patent US9676728B2, “2-benzyl-benzimidazole complement factor B inhibitors and uses thereof” (Novartis AG, priority 2013, dated 2017).

Assay [1] deals with human complement factor B (CVF-Bb complex) (Homo sapiens (Human), UniProt P00751). The assay is described as follows: biochemical. The method, then: CVF-Bb complex prepared from purified cobra venom factor (1 μM), recombinant human complement factor B (expressed in drosophila cells and purified using standard methods) and human complement factor D (expressed in E. Coli, refolded and purified using standard methods). CVF-Bb complex at 3 nM concentration was incubated with test compound at various concentrations for 1 hour at room temperature in PBS pH 7.4 containing 10 mM MgCl2 and 0.05% (w/v) CHAPS. Human complement C3 substrate purified from plasma was added to a final concentration of 1 μM. After 1 hour incubation at room temperature, the enzyme reaction was stopped by addition of a cocktail of concentrated pan-protease inhibitors. The product of the reaction, C3a, was quantified by means of an enzyme-linked-immunosorbent assay.

In assay [2] the target is Recombinant human factor B (Homo sapiens (Human), UniProt P00751). Description: Human Complement Factor B TR-FRET Assay (displacement of Cy5-labeled ligand). On the technique in general: In TR-FRET formats the signal depends on donor and acceptor labels being close together.

Molecules are shown by their SMILES.

Sequence of Recombinant human factor B (P00751 26-764): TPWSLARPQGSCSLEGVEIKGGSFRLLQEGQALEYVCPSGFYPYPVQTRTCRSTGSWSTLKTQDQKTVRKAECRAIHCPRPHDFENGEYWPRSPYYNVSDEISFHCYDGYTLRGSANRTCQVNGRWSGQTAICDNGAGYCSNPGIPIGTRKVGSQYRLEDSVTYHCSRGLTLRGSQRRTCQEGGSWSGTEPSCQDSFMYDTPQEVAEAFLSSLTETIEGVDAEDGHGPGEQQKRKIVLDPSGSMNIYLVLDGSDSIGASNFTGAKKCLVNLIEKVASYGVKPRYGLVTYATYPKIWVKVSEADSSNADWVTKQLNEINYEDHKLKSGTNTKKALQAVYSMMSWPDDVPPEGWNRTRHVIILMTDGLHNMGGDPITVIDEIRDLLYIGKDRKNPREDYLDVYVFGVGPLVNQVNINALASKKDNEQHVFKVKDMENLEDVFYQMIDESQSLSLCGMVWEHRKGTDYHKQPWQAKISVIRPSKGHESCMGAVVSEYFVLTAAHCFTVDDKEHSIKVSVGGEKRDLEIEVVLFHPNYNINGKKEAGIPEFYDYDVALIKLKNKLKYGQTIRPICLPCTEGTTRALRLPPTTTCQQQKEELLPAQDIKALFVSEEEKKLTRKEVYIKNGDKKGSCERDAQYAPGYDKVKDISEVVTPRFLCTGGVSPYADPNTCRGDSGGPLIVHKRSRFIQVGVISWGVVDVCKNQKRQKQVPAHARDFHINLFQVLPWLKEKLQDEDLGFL

In general, IC50 refers to the concentration that gives 50% inhibition. Compound `COc1cc(C)cc(C)c1C(O)(c1nc2cc(C#N)ccc2[nH]1)C(F)(F)F` (racemic) [Example 3-B, (±)-2-(2,2,2-Trifluoro-1-hydroxy-1-(2-methoxy-4,6-dimethylphenyl)ethyl)-1H-benzo[d]imidazole-5-carbonitrile] came in with an IC50 in assay [1] of 390 nM.
On to `CNC(c1nc2cc(C#N)ccc2[nH]1)(c1c(C)cccc1OC)C(F)(F)F` (racemic) [Example 6-C, (±)-2-(2,2,2-Trifluoro-1-(2-methoxy-6-methylphenyl)-1-(methylamino)ethyl)-1H-benzo[d]imidazole-5-carbonitrile], for which, in assay [1], the IC50 amounted to 3130 nM.
`COc1cc(C)cc(C)c1C(N)(c1nc2cc(C#N)ccc2[nH]1)C1CC1` (racemic) [Example 9-C, (±)-2-(Amino(cyclopropyl)(2-methoxy-4,6-dimethylphenyl)methyl)-1H-benzo[d]imidazole-5-carbonitrile] showed an IC50 in assay [1] of 1500 nM.
The same measure, in the same setting: the value for `COc1cc(C)cc(C)c1C(C)(N)c1nc2cc(C#N)ccc2[nH]1` (racemic) [Example 8-B, (±)-2-(1-Amino-1-(2-methoxy-4,6-dimethylphenyl)ethyl)-1H-benzo[d]imidazole-5-carbonitrile] was 6900 nM.
In the case of `COc1cc(C)cc(C)c1C(OCC(N)=O)(c1nc2cc(C#N)ccc2[nH]1)C(F)(F)F` (racemic) [Example 10-C, (±)-2-(1-(5-Cyano-1H-benzo[d]imidazol-2-yl)-2,2,2-trifluoro-1-(2-methoxy-4,6-dimethylphenyl)ethoxy)acetamide], the IC50 in assay [2] came to 0.47 µM.
On to `CNC(c1nc2cc(C#N)ccc2[nH]1)(c1c(OC)cc(C)c(Cl)c1C)C(F)(F)F` (racemic) [Example 6-B, (±)-2-(1-(3-Chloro-6-methoxy-2,4-dimethylphenyl)-2,2,2-trifluoro-1-(methylamino)ethyl)-1H-benzo[d]imidazole-5-carbonitrile], for which, in assay [1], half-maximal inhibition (IC50) required 1980 nM.
The same measure, in the same setting: the figure for `COc1cc(C)cc(C)c1C(N)(c1nc2cc(C#N)ccc2[nH]1)C(F)(F)F` (racemic) [Example 6-D, (±)-2-(1-Amino-2,2,2-trifluoro-1-(2-methoxy-4,6-dimethylphenyl)ethyl)-1H-benzo[d]imidazole-5-carbonitrile] is 1570 nM.
As for `COc1cc(C)cc(C)c1C(C)(O)c1nc2cc(C#N)ccc2[nH]1` (racemic) [Example 2-C, (±)-2-(1-Hydroxy-1-(2-methoxy-4,6-dimethylphenyl)ethyl)-1H-benzo[d]imidazole-5-carbonitrile], the IC50 in assay [1] was found to be 1450 nM.
In turn, `CNC(c1nc2cc(C#N)ccc2[nH]1)c1c(OC)cc(C)cc1OC` (racemic) [Example 12-D (A), (±)-2-((2,6-Dimethoxy-4-methylphenyl)(methylamino)methyl)-1H-benzo[d]imidazole-5-carbonitrile] returned an IC50 in assay [1] of 13900 nM.
With `COc1cc(C)c(Br)c(C)c1C(O)(c1nc2cc(C#N)ccc2[nH]1)C(F)(F)F` (racemic) [Example 4, (±)-2-(1-(3-bromo-6-methoxy-2,4-dimethylphenyl)-2,2,2-trifluoro-1-hydroxyethyl)-1H-benzo[d]imidazole-5-carbonitrile], the IC50 in assay [2] is 98.9 µM.
Turning to `CNC(c1nc2cc(C#N)ccc2[nH]1)(c1c(OC)cc(C)c(Br)c1C)C(F)(F)F` (racemic) [Example 6-E, (±)-2-(1-(3-Bromo-6-methoxy-2,4-dimethylphenyl)-2,2,2-trifluoro-1-(methylamino)ethyl)-1H-benzo[d]imidazole-5-carbonitrile], the half-inhibitory concentration (IC50) in assay [2] is 7 µM.
With `CNC(c1nc2cc(C#N)ccc2[nH]1)(c1c(OC)cc(C)cc1OC)C(F)(F)F` (racemic) [Example 12-D (B), (±)-2-(1-(2,6-dimethoxy-4-methylphenyl)-2,2,2-trifluoro-1-(methylamino)ethyl)-1H-benzo[d]imidazole-5-carbonitrile], in assay [1], the IC50 was 11100 nM.
Consider `CNC(c1nc2cc(C#N)ccc2[nH]1)(c1ccc(C)cc1OC)C(F)(F)F` (racemic) [Example 6-A, (±)-2-(2,2,2-Trifluoro-1-(2-methoxy-4-methylphenyl)-1-(methylamino)ethyl)-1H-benzo[d]imidazole-5-carbonitrile], for which, in assay [1], it took 380 nM to reach half-maximal inhibition (IC50).
Turning to `COc1cc(C)cc(C)c1C(O)c1nc2cc(C#N)ccc2[nH]1` (racemic) [Example 1-C, (±)-2-(Hydroxy(2-methoxy-4,6-dimethylphenyl)methyl)-1H-benzo[d]imidazole-5-carbonitrile], in assay [1], it took 5750 nM to reach half-maximal inhibition (IC50).
Same read-out and setting: the value for `COc1cc(C)cc(C)c1C(N)c1nc2cc(C#N)ccc2[nH]1` (racemic) [Example 7-D, (±)-2-(Amino(2-methoxy-4,6-dimethylphenyl)methyl)-1H-benzo[d]imidazole-5-carbonitrile] was 8700 nM.
